Test system: MV4-11
Experiment: Cytotoxicity against human MV4-11 cells assessed as inhibition of cell viability
Type: functional, cell-based
Details: not given

SMILES	IC50 [nM]
Cc1noc(C)c1-c1ccc2nc(-c3cnn(CC(C)(C)O)c3)nc(N3CCOC[C@@H]3C3CCC3)c2c1	2200
CNC(=O)C1CCN(c2nc(N3CCOC[C@@H]3c3ccccc3)c3cc(-c4c(C)noc4C)ccc3n2)CC1	970
Cc1noc(C)c1-c1ccc2nc(-c3cnn(CC(C)(C)O)c3)nc(N3CCOC[C@@H]3C3CCCC3)c2c1	1540
CC(=O)N1CCN(c2nc(N3CCOC[C@@H]3c3ccccc3)c3cc(-c4c(C)noc4C)ccc3n2)CC1	1430
Cc1noc(C)c1-c1ccc2nc(-c3cnn(CC(=O)N(C)C)c3)nc(N3CCOC[C@@H]3c3ccccc3)c2c1	1800
Cn1cc(-c2ccc3nc(-c4cnn(CC(C)(C)O)c4)nc(N4CCOC[C@@H]4c4ccc(F)cc4)c3c2)ccc1=O	870
Cc1noc(C)c1-c1ccc2nc(-c3cnn(CC(N)=O)c3)nc(N3CCOC[C@@H]3c3ccccc3)c2c1	2020
Cc1noc(C)c1-c1ccc2nc(N3CCN(CCN(C)C)CC3)nc(N3CCOC[C@H]3c3ccccc3)c2c1	1280
Cc1noc(C)c1-c1ccc2nc(-c3cnn(CC(C)(C)O)c3)nc(N3CCOC[C@@H]3C3CCCCC3)c2c1	1430
Cc1noc(C)c1-c1ccc2nc(-c3cnn(CC(C)(C)O)c3)nc(N3CCOC[C@H]3c3ccccc3)c2c1	1730
CNC(=O)Cn1cc(-c2nc(N3CCOC[C@@H]3c3ccccc3)c3cc(-c4c(C)noc4C)ccc3n2)cn1	1010
Cc1noc(C)c1-c1ccc2nc(N3CCC4(CCN(C)C4=O)CC3)nc(N3CCOC[C@@H]3c3ccccc3)c2c1	1360

Molecular target: T1, Bromodomain-containing protein 4 (Homo sapiens, UniProt O60885)
Experiment: Inhibition of human full-length recombinant N-terminal His-tagged BRD4 (2 to 1362 residues) expressed in Sf9 cells using histone H4 peptide containing acetylated lysine residues as substrate preincubated with enzyme for 30 mins followed by incubation with substrate for 30 mins by Alphascreen assay […]
Details: not given

SMILES	IC50 [nM]
Cc1noc(C)c1-c1ccc2nc(-c3cnn(CCO)c3)nc(N3CCOCC3c3ccccc3)c2c1 (stereo not given)	72

Test system: not listed separately
Experiment: Stability in mouse liver microsomes assessed as half life
Type: ADME, Microsome
Details: not given

SMILES	t1/2 [min]
Cc1noc(C)c1-c1ccc2nc(-c3cnn(CC(C)(C)O)c3)nc(N3CCOC[C@@H]3C3CCC3)c2c1	18
Cc1noc(C)c1-c1ccc2nc(-c3cnn(CC(C)(C)O)c3)nc(N3CCOC[C@@H]3C3CCCC3)c2c1	2
Cc1noc(C)c1-c1ccc2nc(-c3cnn(CC(C)(C)O)c3)nc(N3CCOC[C@@H]3C3CCCCC3)c2c1	4

Molecular target: T1, Bromodomain-containing protein 4
Experiment: Competitive binding affinity to human partial length BRD4 (BD1,2) (N44 to E460 residues) expressed in bacterial expression system by BROMOscan assay
Details: not given

SMILES	Kd [nM]
Cc1cc(-c2ccc3nc(-c4cnn(CC(C)(C)O)c4)nc(N4CCOC[C@@H]4C4CC4)c3c2)cn(C)c1=O	70
Cc1noc(C)c1-c1ccc2nc(-c3cnn(CC(C)(C)O)c3)nc(N3CCOC[C@@H]3C3CCC3)c2c1	195
CNC(=O)C1CCN(c2nc(N3CCOC[C@@H]3c3ccccc3)c3cc(-c4c(C)noc4C)ccc3n2)CC1	73
Cc1noc(C)c1-c1ccc2nc(-c3cnn(CC(C)(C)O)c3)nc(N3CCOC[C@@H]3C3CCCC3)c2c1	155
CC(=O)N1CCN(c2nc(N3CCOC[C@@H]3c3ccccc3)c3cc(-c4c(C)noc4C)ccc3n2)CC1	42
Cc1noc(C)c1-c1ccc2nc(-c3cnn(CC(=O)N(C)C)c3)nc(N3CCOC[C@@H]3c3ccccc3)c2c1	110
Cn1cc(-c2ccc3nc(-c4cnn(CC(C)(C)O)c4)nc(N4CCOC[C@@H]4c4ccc(F)cc4)c3c2)ccc1=O	160
Cc1noc(C)c1-c1ccc2nc(-c3cnn(CCO)c3)nc(N3CCOC[C@@H]3c3ccccc3)c2c1	99
Cc1noc(C)c1-c1ccc2nc(-c3cnn(CC(N)=O)c3)nc(N3CCOC[C@@H]3c3ccccc3)c2c1	120
Cc1noc(C)c1-c1ccc2nc(-c3cnn(CC(C)(C)O)c3)nc(N3CCOC[C@@H]3C3CCCCC3)c2c1	123
Cc1noc(C)c1-c1ccc2nc(-c3cnn(CC(C)(C)O)c3)nc(N3CCOC[C@H]3c3ccccc3)c2c1	260
CNC(=O)Cn1cc(-c2nc(N3CCOC[C@@H]3c3ccccc3)c3cc(-c4c(C)noc4C)ccc3n2)cn1	85
Cc1noc(C)c1-c1ccc2nc(N3CCC4(CCN(C)C4=O)CC3)nc(N3CCOC[C@@H]3c3ccccc3)c2c1	110

Test system: not listed separately
Experiment: Cmax in CD-1 mouse at 10 mg/kg, po
Type: ADME, organism-based
Parameters: route oral, dose 10 mg/kg
Details: mouse, in vivo

SMILES	Cmax [ng/mL]
Cc1noc(C)c1-c1ccc2nc(-c3cnn(CCO)c3)nc(N3CCOCC3c3ccccc3)c2c1 (stereo not given)	934
